Patent US11465965B2, “Double-headed protease inhibitor” (UBE INDUSTRIES, LTD., priority 2017, dated 2022)
Counter-ions that a name gives are not always drawn.

Tests used:
[1] = target: T1, Human recombinant enteropeptidase (Homo sapiens, UniProt P98073); experiment: Human enteropeptidase inhibition test; assay type: biochemical; settings: 20 minutes after reaction start, read-out: Inhibition rate (enteropeptidase); for inhibition at 0.01 µM: compound concentration 10 nM; for inhibition at 0.1 µM: compound concentration 100 nM
T1 construct: purchased BIO Vision Inc. 7529-50
Protocol: (Test Example 1): Human Enteropeptidase Inhibition Test
Human recombinant enteropeptidase (manufactured by BIO Vision Inc., catalog no.: 7529-50) was diluted with an assay buffer (50 mM tricine (pH8.0), 0.01 W/V % Tween 20, 10 mM CaCl2) to prepare an […] enzyme solution. Then, 5FAM-Abu-Gly-Asp-Asp-Lys-Ile-Val-Gly-Gly-Lys (CPQ2)-Lys-Lys-NH2 (manufactured by CHINESE PEPTIDE COMPANY, purity: 94.5) was diluted with the assay buffer to prepare a 1.5 μM substrate solution. Each test compound was dissolved into DMSO, then diluted with the assay buffer 100 times, and further appropriately diluted with an assay buffer comprising 1% DMSO to prepare each compound solution. 10 μL of the compound solution, 15 μL of the assay buffer, and 50 μL of the substrate solution were added to a 96 well black plate (manufactured by Thermo Fisher Scientific Inc., code no.: 9502867), mixed, then 25 μL of the enzyme solution was added thereto, and mixed to start the reaction. Fluorescence intensities at excitation wavelength 485 nm and fluorescence wavelength 535 nm were measured by using a fluorescence plate reader (Flex station 3) (Test compound addition group). Also, the same reaction as described above except for not adding each test compound was carried out (Test compound non-addition group). Additionally, the same reaction as described above except for not adding each test compound and the enzyme was carried out (Control group). Inhibition rate was calculated by the following equation using fluorescence intensity after 20 minutes of reaction start. Inhibition rate (%)=(1−(fluorescence intensity of Test compound addition group−fluorescence intensity of Control group)÷(fluorescence intensity of Test compound non-addition group−fluorescence intensity of Control group))×100

[2] = target: T2, Human recombinant trypsin (Homo sapiens, UniProt P07477); experiment: Human trypsin inhibition test; assay type: biochemical; settings: 20 minutes after reaction start, read-out: Inhibition rate (trypsin); for inhibition at 0.001 µM: compound concentration 1 nM; for inhibition at 0.01 µM: compound concentration 10 nM; for inhibition at 0.1 µM: compound concentration 100 nM
T2 construct: purchased Wako Pure Chemical Industries, Ltd. 206-17171
Protocol: (Test Example 2): Human Trypsin Inhibition Test
Human recombinant trypsin (manufactured by Wako Pure Chemical Industries, Ltd., code no.: 206-17171) was diluted with an assay buffer (0.1 M Tris-HCl (pH8.0), 0.15 M NaCl, 10 mM CaCl2, 0.05% Brij35) to prepare a 10 ng/mL enzyme solution. Then, Boc-Phe-Ser-Arg-MCA (manufactured by PEPTIDE INSTITUTE, INC., code no.: 3107-v) was diluted with the assay buffer to prepare a 40 μM substrate solution. Each test compound was dissolved into DMSO, then diluted with the assay buffer 100 times, and further appropriately diluted with an assay buffer comprising 1% DMSO to prepare each compound solution. 10 μL of the compound solution, 15 μL of the assay buffer, and 50 μL of the substrate solution were added to a 96 well black plate (manufactured by Thermo Fisher Scientific Inc., code no.: 9502867), mixed, and then 25 μL of the enzyme solution was added thereto, and mixed to start the reaction. Fluorescence intensities at excitation wavelength 355 nm and fluorescence wavelength of 460 nm were measured by using a fluorescence plate reader (Flex station 3) (Test compound addition group). Also, the same reaction as described above except for not adding each test compound was carried out (Test compound non-addition group). Additionally, the same reaction as described above except for not adding each test compound and the enzyme was carried out (Control group). Inhibition rate was calculated by the following equation using fluorescence intensity after 20 minutes of reaction start. Inhibition rate (%)=(1−(fluorescence intensity of Test compound addition group−fluorescence intensity of Control group)[…](fluorescence intensity of Test compound non-addition group−fluorescence intensity of Control group))×100

T1 sequence (P98073 whole entry): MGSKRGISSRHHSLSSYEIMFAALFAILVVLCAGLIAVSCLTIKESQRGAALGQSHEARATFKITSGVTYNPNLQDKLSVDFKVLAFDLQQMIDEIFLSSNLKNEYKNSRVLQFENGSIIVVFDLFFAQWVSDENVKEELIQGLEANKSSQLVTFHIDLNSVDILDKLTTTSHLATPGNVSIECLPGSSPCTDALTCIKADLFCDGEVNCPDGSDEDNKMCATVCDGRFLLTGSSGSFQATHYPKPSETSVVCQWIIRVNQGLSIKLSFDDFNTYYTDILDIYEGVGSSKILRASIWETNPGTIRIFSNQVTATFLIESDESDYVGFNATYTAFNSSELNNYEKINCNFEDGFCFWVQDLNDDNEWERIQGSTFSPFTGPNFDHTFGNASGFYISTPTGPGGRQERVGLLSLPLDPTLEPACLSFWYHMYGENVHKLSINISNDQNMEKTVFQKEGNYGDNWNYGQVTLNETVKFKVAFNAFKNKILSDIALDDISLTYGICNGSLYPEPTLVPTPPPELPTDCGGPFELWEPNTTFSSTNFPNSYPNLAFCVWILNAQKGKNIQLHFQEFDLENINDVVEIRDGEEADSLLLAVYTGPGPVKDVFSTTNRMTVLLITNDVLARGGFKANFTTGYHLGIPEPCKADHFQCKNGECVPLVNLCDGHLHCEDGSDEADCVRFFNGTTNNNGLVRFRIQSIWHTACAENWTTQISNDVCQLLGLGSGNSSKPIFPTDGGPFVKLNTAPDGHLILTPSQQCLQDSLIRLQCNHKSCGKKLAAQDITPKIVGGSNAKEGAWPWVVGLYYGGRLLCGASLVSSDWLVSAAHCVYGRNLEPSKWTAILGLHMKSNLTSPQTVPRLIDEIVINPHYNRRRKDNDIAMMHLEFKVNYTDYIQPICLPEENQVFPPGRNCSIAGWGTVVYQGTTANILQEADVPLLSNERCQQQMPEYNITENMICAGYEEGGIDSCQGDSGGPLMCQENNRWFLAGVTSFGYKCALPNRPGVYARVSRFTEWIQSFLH

inhibition at 0.001 µM ([1]; compound concentration 1 nM)	inhibition at 0.01 µM [1]	inhibition at 0.001 µM [2]	inhibition at 0.01 µM [2]	inhibition at 0.1 µM [2]	inhibition at 0.1 µM [1]	SMILES
≥ 50%	≥ 50%	≥ 50%	≥ 50%	≥ 50%		CN(Cc1ccc(OC(=O)c2ccc(NC(=N)N)cc2)cc1)S(=O)(=O)N(CCOCCOCCN([C@@H](CC(=O)O)C(=O)O)S(=O)(=O)N(C)Cc1ccc(OC(=O)c2ccc(NC(=N)N)cc2)cc1)[C@@H](CC(=O)O)C(=O)O [22-(a), (2S,13S)-3,12-bis(N-(4-((4-guanidinobenzoyl)oxy)benzyl)-N-methylsulfamoyl)-6,9-dioxa-3,12-diazatetradecane-1,2,13,14-tetracarboxylic acid trifluoroacetate]
	≥ 50%	≥ 50%	≥ 50%	≥ 50%	≥ 50%	N=C(N)Nc1ccc(C(=O)Oc2ccc(CNS(=O)(=O)N(CCOCCOCCN(C(CC(=O)O)CC(=O)O)S(=O)(=O)NCc3ccc(OC(=O)c4ccc(NC(=N)N)cc4)cc3)C(CC(=O)O)CC(=O)O)cc2)cc1 [23-(c), 3,3′-(((ethane-1,2-diylbis(oxy))bis(ethane-2,1-diyl))bis((N-(4-((4-guanidinobenzoyl)oxy)benzyl)sulfamoyl)azanediyl))dipentanedioic acid]
				≥ 50%	≥ 50%	N=C(N)Nc1ccc(C(=O)Oc2ccc(COC(=O)N[C@@H](CC(=O)O)C(=O)O)cc2)cc1 [Reference Example 31-(b), (5)-2-((((4-((4-guanidinobenzoyl)oxy)benzyl)oxy)carbonyl)amino)succinic acid trifluoroacetate]
				≥ 50%	≥ 50%	N=C(N)Nc1ccc(C(=O)Oc2ccc(COC(=O)NC(CC(=O)O)C(=O)N[C@@H](CC(=O)O)C(=O)O)cc2)cc1 (stereo partly drawn) [Reference Example 41-(b), (2S)-2-(3-carboxy-2-((((4-((4-guanidinobenzoyl)oxy)benzyl)oxy)carbonyl)amino)propaneamine)succinic acid trifluoroacetate]
				≥ 50%	≥ 50%	N=C(N)Nc1ccc(C(=O)Oc2ccc(COC(=O)N(Cc3cccc(C(=O)O)c3)[C@@H](CC(=O)O)C(=O)O)cc2)cc1 [Reference Example 49-(b), (S)-2-(3-carboxybenzyl) (((4-((4-guanidinobenzoyl)oxy)benzyl)oxy)carbonyl)amino)succinic acid trifluoroacetate]
				≥ 50%	≥ 50%	N=C(N)Nc1ccc(C(=O)Oc2ccc(CNS(=O)(=O)N(Cc3cccc(C(=O)O)c3)[C@@H](CC(=O)O)C(=O)O)cc2)cc1 [Reference Example 52-(b), (S)-2-((3-carboxybenzyl)(N-(4-((4-guanidinobenzoyl)oxy)benzyl)sulfamoyl)amino)succinic acid trifluoroacetate]
				≥ 50%	≥ 50%	N=C(N)Nc1ccc(C(=O)Oc2ccc(CNS(=O)(=O)N[C@@H](CC(=O)O)C(=O)O)cc2)cc1 [Reference Example 55-(b), (S)-2-((N-(4-((4-guanidinobenzoyl)oxy)benzyl)sulfamoyl)amino)succinic acid]
				≥ 50%	≥ 50%	N=C(N)Nc1ccc(C(=O)Oc2cccc(CNS(=O)(=O)N[C@@H](CC(=O)O)C(=O)O)c2)cc1 [Reference Example 73-(b), (S)-2-((N-(3-((4-guanidinobenzoyl)oxy)benzyl)sulfamoyl)amino)succinic acid trifluoroacetate]
				≥ 50%	≥ 50%	N=C(N)Nc1ccc(C(=O)Oc2cccc(C(=O)N[C@@H](CC(=O)O)C(=O)O)c2)cc1 [Reference Example 87-(d), (S)-2-(3-((4-guanidinobenzoyl)oxy)benzamide)succinic acid]
